Assay [1] deals with T1, 4-hydroxyphenylpyruvate dioxygenase (Homo sapiens, UniProt P32754). The assay can be described thus: Inhibition of purified His6-tagged recombinant human HPPD assessed as inhibition of maleylacetoacetate formation after 30 mins by UV/visible spectrophotometry.
Target sequence in this assay (P32754 whole entry): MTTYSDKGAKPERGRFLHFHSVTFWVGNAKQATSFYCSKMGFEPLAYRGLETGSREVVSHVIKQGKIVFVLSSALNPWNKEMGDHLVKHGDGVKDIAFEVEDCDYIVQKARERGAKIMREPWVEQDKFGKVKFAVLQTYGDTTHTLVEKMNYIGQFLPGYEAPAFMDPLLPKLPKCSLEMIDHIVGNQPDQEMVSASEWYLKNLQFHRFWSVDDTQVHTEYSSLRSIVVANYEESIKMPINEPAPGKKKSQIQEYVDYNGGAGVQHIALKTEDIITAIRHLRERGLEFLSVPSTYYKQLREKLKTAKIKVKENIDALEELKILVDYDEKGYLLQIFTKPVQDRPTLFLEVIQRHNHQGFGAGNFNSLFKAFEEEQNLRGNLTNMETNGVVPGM
Assay [2] concerns the target T1, 4-hydroxyphenylpyruvate dioxygenase. The assay can be described thus: Ratio of Nitisinone Ki to compound Ki for purified His6-tagged recombinant human HPPD assessed as inhibition of maleylacetoacetate formation after 30 mins by UV/visible spectrophotometry.
Target sequence in this assay (P32754 2-393 limits assumed): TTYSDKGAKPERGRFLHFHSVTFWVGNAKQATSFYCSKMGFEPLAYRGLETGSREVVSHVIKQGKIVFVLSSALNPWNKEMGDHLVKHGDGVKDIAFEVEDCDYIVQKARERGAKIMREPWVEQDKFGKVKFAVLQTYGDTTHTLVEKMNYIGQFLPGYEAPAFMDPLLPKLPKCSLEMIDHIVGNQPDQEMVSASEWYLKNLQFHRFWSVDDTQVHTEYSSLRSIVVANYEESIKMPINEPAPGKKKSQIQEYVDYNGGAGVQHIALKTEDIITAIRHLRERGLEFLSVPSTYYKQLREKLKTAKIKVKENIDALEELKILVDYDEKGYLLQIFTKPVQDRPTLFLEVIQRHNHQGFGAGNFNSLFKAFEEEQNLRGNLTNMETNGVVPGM

Take `Cc1nc2ccc(C(=O)c3cnn(C)c3O)cc2c(=O)n1-c1ccccc1Br`: the Ki in assay [1] stood at 0.024 µM. Still for that read-out and setting: the figure for `Cc1nn(C)c(O)c1C(=O)c1ccc2nc(C)n(-c3cccc(Cl)c3)c(=O)c2c1` is 0.173 µM; for `Cc1ccc(-n2c(C)nc3ccc(C(=O)c4c(C)nn(C)c4O)cc3c2=O)c(Br)c1` it is 0.087 µM. Take `Cc1ccccc1-n1c(C)nc2ccc(C(=O)c3c(C)nn(C)c3O)cc2c1=O`: the Ki in assay [1] stood at 0.248 µM. For the compound `Cc1cc(Cl)ccc1-n1c(C)nc2ccc(C(=O)c3c(C)nn(C)c3O)cc2c1=O`, in assay [1], the Ki turned out to be 0.177 µM. Turning to `Cc1cccc(-n2c(C)nc3ccc(C(=O)c4c(C)nn(C)c4O)cc3c2=O)c1`, the Ki in assay [1] is 0.074 µM.

For `Cc1nn(C)c(O)c1C(=O)c1ccc2nc(C)n(-c3ccccc3F)c(=O)c2c1`, in assay [1], the Ki turned out to be 0.079 µM. On the same count and under the same terms, to `Cc1nc2ccc(C(=O)c3cnn(C)c3O)cc2c(=O)n1-c1cccc(OC(F)(F)F)c1` belongs 0.031 µM. Take `COc1ccc(-n2c(C)nc3ccc(C(=O)c4cnn(C)c4O)cc3c2=O)cc1`: the Ki in assay [1] came to 0.06 µM. The same measure, in the same setting: the figure for `COc1ccccc1-n1c(C)nc2ccc(C(=O)c3c(C)nn(C)c3O)cc2c1=O` is 0.207 µM. Take `Cc1nn(C)c(O)c1C(=O)c1ccc2nc(C)n(-c3cccc(Br)c3)c(=O)c2c1`: the Ki in assay [1] came to 0.093 µM. Take `Cc1nc2ccc(C(=O)c3cnn(C)c3O)cc2c(=O)n1-c1ccc(OC(F)(F)F)cc1`: in assay [1], the Ki came out at 0.16 µM.

`COc1ccc(-n2c(C)nc3ccc(C(=O)c4c(C)nn(C)c4O)cc3c2=O)cc1`: the Ki in assay [1] was determined as 0.238 µM. Take `Cc1ccc(-n2c(C)nc3ccc(C(=O)c4c(C)nn(C)c4O)cc3c2=O)c(Cl)c1`: the Ki in assay [1] amounted to 0.109 µM. As for `Cc1ccc(-n2c(C)nc3ccc(C(=O)c4cnn(C)c4O)cc3c2=O)c(Cl)c1`, the Ki in assay [1] worked out at 0.09 µM. Turning to `Cc1nc2ccc(C(=O)c3cnn(C)c3O)cc2c(=O)n1-c1ccc(Br)cc1`, the Ki in assay [1] is 0.018 µM. In the case of `Cc1ccc(-n2c(C)nc3ccc(C(=O)c4c(C)nn(C)c4O)cc3c2=O)c(C)c1`, the Ki in assay [1] was determined as 0.161 µM. In the case of `Cc1nc2ccc(C(=O)c3cnn(C)c3O)cc2c(=O)n1-c1ccccc1Cl`, the inhibitory constant (Ki) in assay [1] is 0.022 µM. As for `Cc1nn(C)c(O)c1C(=O)c1ccc2nc(C)n(-c3cccc(F)c3)c(=O)c2c1`, the Ki in assay [1] stood at 0.09 µM. On to `COc1cccc(-n2c(C)nc3ccc(C(=O)c4cnn(C)c4O)cc3c2=O)c1`, for which, in assay [1], the Ki stood at 0.034 µM. Turning to `Cc1nc2ccc(C(=O)c3cnn(C)c3O)cc2c(=O)n1-c1ccccc1`, the Ki in assay [1] amounted to 0.019 µM. In the case of `Cc1nc2ccc(C(=O)c3cnn(C)c3O)cc2c(=O)n1-c1cccc(Cl)c1`, the Ratio Ki in assay [2] was found to be 3. In addition, the Ki in assay [1] turned out to be 0.01 µM. Turning to `Cc1nn(C)c(O)c1C(=O)c1ccc2nc(C)n(-c3ccc(Br)cc3)c(=O)c2c1`, the Ki in assay [1] amounted to 0.13 µM.

Consider `Cc1nc2ccc(C(=O)c3cnn(C)c3O)cc2c(=O)n1-c1ccc(Cl)c(Cl)c1`, for which, in assay [1], the inhibitory constant (Ki) came out at 0.025 µM. On the same count and under the same terms, the figure for `Cc1ccccc1-n1c(C)nc2ccc(C(=O)c3cnn(C)c3O)cc2c1=O` is 0.058 µM. Regarding `Cc1ccc(-n2c(C)nc3ccc(C(=O)c4cnn(C)c4O)cc3c2=O)c(Br)c1`, the Ratio Ki in assay [2] was 3. Further, the Ki in assay [1] is 0.011 µM. As to `Cc1cc(F)ccc1-n1c(C)nc2ccc(C(=O)c3cnn(C)c3O)cc2c1=O`, in assay [1], the Ki stood at 0.04 µM. Still for that read-out and setting: to `Cc1ccc(-n2c(C)nc3ccc(C(=O)c4c(C)nn(C)c4O)cc3c2=O)c(F)c1` belongs 0.081 µM; to `Cc1cc(F)ccc1-n1c(C)nc2ccc(C(=O)c3c(C)nn(C)c3O)cc2c1=O`, 0.219 µM.

Regarding `Cc1ccc(-n2c(C)nc3ccc(C(=O)c4cnn(C)c4O)cc3c2=O)c(C)c1`, the inhibition constant (Ki) in assay [1] was found to be 0.059 µM. `Cc1cc(Cl)ccc1-n1c(C)nc2ccc(C(=O)c3cnn(C)c3O)cc2c1=O`: the inhibitory constant (Ki) in assay [1] was 0.032 µM. Regarding `Cc1nc2ccc(C(=O)c3cnn(C)c3O)cc2c(=O)n1-c1ccc(Cl)cc1`, the Ki in assay [1] came out at 0.022 µM.

On to `Cc1ccc(-n2c(C)nc3ccc(C(=O)c4cnn(C)c4O)cc3c2=O)cc1`, for which the Ki in assay [1] amounted to 0.025 µM. Turning to `Cc1nc2ccc(C(=O)c3cnn(C)c3O)cc2c(=O)n1-c1cccc(F)c1`, the Ki in assay [1] stood at 0.02 µM. On the same count and under the same terms, to `Cc1nc2ccc(C(=O)c3cnn(C)c3O)cc2c(=O)n1-c1ccccc1F` belongs 0.015 µM. With `Cc1nn(C)c(O)c1C(=O)c1ccc2nc(C)n(-c3ccc(Cl)cc3)c(=O)c2c1`, in assay [1], the Ki is 0.237 µM. For the compound `Cc1nc2ccc(C(=O)c3cnn(C)c3O)cc2c(=O)n1-c1cccc(Br)c1`, in assay [1], the Ki was found to be 0.014 µM. On the same count and under the same terms, the figure for `Cc1nn(C)c(O)c1C(=O)c1ccc2nc(C)n(-c3ccccc3Cl)c(=O)c2c1` is 0.086 µM.

In the case of `Cc1cccc(-n2c(C)nc3ccc(C(=O)c4cnn(C)c4O)cc3c2=O)c1`, in assay [1], the Ki stood at 0.013 µM. Take `Cc1nc2ccc(C(=O)c3cnn(C)c3O)cc2c(=O)n1-c1ccc(F)cc1`: the Ki in assay [1] is 0.034 µM. For the compound `Cc1ccc(-n2c(C)nc3ccc(C(=O)c4c(C)nn(C)c4O)cc3c2=O)cc1`, in assay [1], the Ki came out at 0.156 µM. With `Cc1nn(C)c(O)c1C(=O)c1ccc2nc(C)n(-c3ccc(F)cc3)c(=O)c2c1`, in assay [1], the Ki came out at 0.247 µM. `COc1ccccc1-n1c(C)nc2ccc(C(=O)c3cnn(C)c3O)cc2c1=O`: the Ki in assay [1] came out at 0.038 µM. Regarding `Cc1ccc(-n2c(C)nc3ccc(C(=O)c4cnn(C)c4O)cc3c2=O)c(F)c1`, the Ki in assay [1] was 0.17 µM.

As a reminder, the Ki is a measure of affinity in units of concentration, obtained from inhibition or displacement.

The values above are taken from ChEMBL document CHEMBL3351560, “Pyrazolone-quinazolone hybrids: a novel class of human 4-hydroxyphenylpyruvate dioxygenase inhibitors” (Bioorg Med Chem, 2014).
